Test results reported in ChEMBL document CHEMBL3867426, “Synthesis and biological evaluation of 6-fluoro-3-phenyl-7-piperazinyl quinolone derivatives as potential topoisomerase I inhibitors” (Eur J Med Chem, 2016).
Activity calls are given as the source filed them. No cut-off for these calls is given here.

Columns and labels:
cells [1] = details: Homo sapiens, HepG2, 48 h
cells [2] = details: Homo sapiens, A549, 48 h
cells [3] = details: Homo sapiens, HeLa, 48 h
[4] = Antiproliferative activity against human BGC823 cells after 48 hrs by MTT assay; format: functional, cell-based; details: BGC-823, 48 h
[5] = Solubility of the compound in pH 7.9 Tris/glycine/SDS buffer at 50 uM; format: physicochemical; details: pH 7.9, 50 µM
[6] = Antitumor activity against human A549 cells xenografted in BALB/c nude mouse assessed as tumor growth inhibition at 20 mg/kg, iv administered once every 3 days for 23 days relative to control; format: functional; details: read-out: TGI
Mus musculus [7] = assay: Toxicity in BALB/c nude mouse xenografted with human A549 cells assessed as change in body weight at 20 mg/kg, iv administered once every 3 days for 23 days measured twice per week during compound dosing; format: organism-based; details: in vivo
[8] = Solubility of the compound in Tris/glycine/SDS buffer at pH 7.9; format: physicochemical
[9] = Antitumor activity against human A549 cells xenografted in BALB/c nude mouse assessed as reduction in tumor volume at 20 mg/kg, iv administered once every 3 days measured on day 15 post dose; format: functional
[10] = Cell cycle arrest in human A549 cells assessed as accumulation at G1 phase at 0.5 uM after 24 hrs by propidium iodide staining based flow cytometric analysis (reference value: 46.14%); format: functional
[11] = Antitumor activity against human A549 cells xenografted in BALB/c nude mouse assessed as reduction in tumor volume at 20 mg/kg, iv administered once every 3 days measured on day 3 post dose; format: functional
[12] = Cell cycle arrest in human A549 cells assessed as accumulation at G2 phase at 0.5 uM after 24 hrs by propidium iodide staining based flow cytometric analysis (reference value: 22.51%); format: functional
[13] = Antitumor activity against human A549 cells xenografted in BALB/c nude mouse assessed as reduction in tumor volume at 20 mg/kg, iv administered once every 3 days measured on day 6 post dose; format: functional
Mus musculus [14] = assay: Toxicity in BALB/c nude mouse xenografted with human A549 cells assessed as mortality at 20 mg/kg, iv administered once every 3 days for 23 days; format: organism-based; details: in vivo
[15] = Antitumor activity against human A549 cells xenografted in BALB/c nude mouse assessed as reduction in tumor volume at 20 mg/kg, iv administered once every 3 days measured on day 12 post dose; format: functional
[16] = Antitumor activity against human A549 cells xenografted in BALB/c nude mouse assessed as reduction in tumor volume at 20 mg/kg, iv administered once every 3 days measured on day 18 post dose; format: functional
[17] = Antitumor activity against human A549 cells xenografted in BALB/c nude mouse assessed as reduction in tumor volume at 20 mg/kg, iv administered once every 3 days measured on day 21 post dose; format: functional
[18] = biological target: T1, DNA topoisomerase 1 (Homo sapiens) (UniProt P11387); assay: Inhibition of DNA topoisomerase 1 (unknown origin)-mediated relaxation of supercoiled pBR322 plasmid DNA at 100 uM after 30 mins by agarose gel electrophoresis
T1 sequence (whole entry): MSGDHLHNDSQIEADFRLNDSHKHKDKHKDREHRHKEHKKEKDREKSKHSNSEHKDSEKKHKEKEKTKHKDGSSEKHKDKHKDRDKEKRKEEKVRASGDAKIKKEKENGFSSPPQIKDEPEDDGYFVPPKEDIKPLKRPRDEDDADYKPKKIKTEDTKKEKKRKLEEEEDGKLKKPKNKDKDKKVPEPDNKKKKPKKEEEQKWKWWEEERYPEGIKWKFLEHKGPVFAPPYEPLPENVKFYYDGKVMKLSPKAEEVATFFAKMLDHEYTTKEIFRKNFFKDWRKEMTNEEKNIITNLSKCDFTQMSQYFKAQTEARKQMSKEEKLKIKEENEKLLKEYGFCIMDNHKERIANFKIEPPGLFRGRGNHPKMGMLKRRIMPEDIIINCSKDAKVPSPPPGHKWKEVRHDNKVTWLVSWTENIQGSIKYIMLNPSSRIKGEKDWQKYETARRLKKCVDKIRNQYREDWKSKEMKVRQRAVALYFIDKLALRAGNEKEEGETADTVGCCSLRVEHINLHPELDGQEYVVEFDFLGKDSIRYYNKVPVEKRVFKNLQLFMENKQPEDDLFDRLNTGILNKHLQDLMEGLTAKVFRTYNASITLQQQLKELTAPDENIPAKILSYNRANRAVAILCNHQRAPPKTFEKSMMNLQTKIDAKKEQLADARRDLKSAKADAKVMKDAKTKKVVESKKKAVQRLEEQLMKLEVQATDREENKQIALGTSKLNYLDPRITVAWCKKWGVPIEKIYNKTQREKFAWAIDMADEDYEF

[19] = Antitumor activity against human A549 cells xenografted in BALB/c nude mouse assessed as reduction in tumor volume at 20 mg/kg, iv administered once every 3 days measured on day 23 post dose; format: functional
[20] = Antitumor activity against human A549 cells xenografted in BALB/c nude mouse assessed as reduction in tumor volume at 20 mg/kg, iv administered once every 3 days measured on day 9 post dose; format: functional
[21] = Cell cycle arrest in human A549 cells assessed as accumulation at S phase at 0.5 uM after 24 hrs by propidium iodide staining based flow cytometric analysis (reference value: 26.40%); format: functional

Compound `CCn1cc(-c2nc3ccc([N+](=O)[O-])cc3o2)c(=O)c2cc(F)c(N3CCNC(C)C3)c(F)c21` (configuration not stated) has an IC50 (cells [1]) of 2.65 µM, an IC50 (cells [2]) of 1.47 µM and an IC50 (cells [3]) of 2.98 µM. The IC50 [4] was 2.74 µM and the solubility [5] was “Insoluble”.
`CCn1cc(-c2ccc(Cl)cc2)c(=O)c2cc(F)c(N3CCNCC3)cc21` showed an IC50 (cells [1]) of 24 µM, an IC50 (cells [2]) of 1.25 µM and an IC50 (cells [3]) of 15.4 µM. It also gave an IC50 [4] of 14.6 µM.
In the case of `COc1cccc(-c2cn(C3CC3)c3cc(N4CCNCC4)c(F)cc3c2=O)c1`, the inhibition in vivo at 20 mg/kg [6] is reported as 42.8%, the Activity (Mus musculus [7]) is reported as “Non-Toxic” and the solubility [8] is reported as greater than 400 µM. It also gave an IC50 (cells [1]) of 0.91 µM, an IC50 (cells [2]) of 0.12 µM and a T/C [9] of 73.12%. It also gave an IC50 (cells [3]) of 0.92 µM, an Activity [10] of 48.2% and a T/C [11] of 140.57%. For the same compound, the Activity [12] was 11.8%, the T/C [13] was 114.41% and the Activity (Mus musculus [14]) was “Non-Toxic”. For the same compound, the T/C [15] was 85.88%, the T/C [16] was 68.69% and the T/C [17] was 71.52%. The inhibition [18] was “Active”, the IC50 [4] was 0.69 µM and the T/C [19] was 64.72%. It also gave a T/C [20] of 118.67% and an Activity [21] of 32.2%.
For `CCn1cc(-c2cccc(F)c2)c(=O)c2cc(F)c(N3CCNCC3)cc21`, the IC50 (cells [1]) was 27.8 µM, the IC50 (cells [2]) was 3.06 µM and the IC50 (cells [3]) was 21.9 µM. For the same compound, the IC50 [4] was 27.3 µM.
In the case of `CCn1cc(-c2ccc(F)cc2)c(=O)c2cc(F)c(N3CCNCC3)cc21`, the IC50 (cells [1]) is reported as 56.2 µM, the IC50 (cells [2]) is reported as 11.4 µM and the IC50 (cells [3]) is reported as 60.9 µM. It also gave an IC50 [4] of 69.6 µM.
`COc1ccc(-c2cn(C3CC3)c3cc(N4CCNCC4)c(F)cc3c2=O)cc1` showed a solubility [8] greater than 400 µM, an IC50 (cells [1]) of 20.8 µM and an IC50 (cells [2]) of 1.87 µM. For the same compound, the IC50 (cells [3]) was 16.5 µM, the inhibition [18] was “Active” and the IC50 [4] was 18.9 µM.
For `O=c1c(-c2cccc(F)c2)cn(C2CC2)c2cc(N3CCNCC3)c(F)cc12`, the solubility [8] was greater than 400 µM, the IC50 (cells [1]) was 7.38 µM and the IC50 (cells [2]) was 1.1 µM. For the same compound, the IC50 (cells [3]) was 9.16 µM, the inhibition [18] was “Active” and the IC50 [4] was 12 µM.
With `CC[C@@]1(O)C(=O)OCc2c1cc1n(c2=O)Cc2cc3cc(O)ccc3nc2-1` [HYDROXYCAMPTOTHECIN] the Activity (Mus musculus [7]) was “Toxic”, the T/C [9] was 27.97% and the T/C [11] was 91.99%. The T/C [13] was 68.37%, the Activity (Mus musculus [14]) was “Toxic” and the T/C [15] was 29.44%. The T/C [16] was 23.92%, the T/C [17] was 20% and the T/C [19] was 21.68%. It also gave a T/C [20] of 54.55%.
`CC[C@@]1(O)C(=O)OCc2c1cc1n(c2=O)Cc2cc3ccccc3nc2-1` [CAMPTOTHECIN] gave an IC50 (cells [1]) of 1.52 µM, an IC50 (cells [2]) of 0.46 µM and an IC50 (cells [3]) of 1.41 µM. For the same compound, the Activity [10] was 33.2%, the Activity [12] was 11.3% and the IC50 [4] was 1.27 µM. For the same compound, the Activity [21] was 48.1%.
For `COc1cccc(-c2cn(C3CC3)c3cc(N4CCN(C)CC4)c(F)cc3c2=O)c1`, the IC50 (cells [1]) was 25.4 µM, the IC50 (cells [2]) was 1.12 µM and the IC50 (cells [3]) was 14.8 µM. The IC50 [4] was 20.9 µM.
For `O=c1c(-c2ccc(F)cc2)cn(C2CC2)c2cc(N3CCNCC3)c(F)cc12`, the solubility [8] was greater than 400 µM, the IC50 (cells [1]) was 10.6 µM and the IC50 (cells [2]) was 1.68 µM. For the same compound, the IC50 (cells [3]) was 14.9 µM, the inhibition [18] was “Active” and the IC50 [4] was 15.1 µM.
With `CCn1cc(-c2ccc(C#N)cc2)c(=O)c2cc(F)c(N3CCNCC3)cc21` the IC50 (cells [1]) was 12.6 µM, the IC50 (cells [2]) was 1.09 µM and the IC50 (cells [3]) was 14.6 µM. It also gave an IC50 [4] of 18.7 µM.
For `CCn1cc(-c2ccccc2)c(=O)c2cc(F)c(N3CCNCC3)cc21`, the IC50 (cells [1]) was 30.1 µM, the IC50 (cells [2]) was 10.8 µM and the IC50 (cells [3]) was 35.1 µM. The IC50 [4] was 75.4 µM.
With `CCn1cc(-c2cccc(Cl)c2)c(=O)c2cc(F)c(N3CCNCC3)cc21` the IC50 (cells [1]) was 15.3 µM, the IC50 (cells [2]) was 0.78 µM and the IC50 (cells [3]) was 16.1 µM. The IC50 [4] was 18.4 µM.
In the case of `O=c1c(-c2cccc(Cl)c2)cn(C2CC2)c2cc(N3CCNCC3)c(F)cc12`, the inhibition in vivo at 20 mg/kg [6] is reported as 29.2%, the Activity (Mus musculus [7]) is reported as “Non-Toxic” and the solubility [8] is reported as greater than 400 µM. The IC50 (cells [1]) was 0.86 µM, the IC50 (cells [2]) was 0.11 µM and the T/C [9] was 76.4%. For the same compound, the IC50 (cells [3]) was 0.89 µM, the Activity [10] was 44% and the T/C [11] was 87.18%. The Activity [12] was 17.7%, the T/C [13] was 95.42% and the Activity (Mus musculus [14]) was “Non-Toxic”. It also gave a T/C [15] of 58.03%, a T/C [16] of 62.96% and a T/C [17] of 73.07%. The inhibition [18] was “Active”, the IC50 [4] was 0.61 µM and the T/C [19] was 74.32%. The T/C [20] was 85.54% and the Activity [21] was 31.2%.
For `CCn1cc(-c2ccc(OC)cc2)c(=O)c2cc(F)c(N3CCNCC3)cc21`, the IC50 (cells [1]) was 57.9 µM, the IC50 (cells [2]) was 11.6 µM and the IC50 (cells [3]) was 69 µM. The IC50 [4] was 46.1 µM.
Compound `CN1CCN(c2cc3c(cc2F)c(=O)c(-c2cccc(Cl)c2)cn3C2CC2)CC1` has an IC50 (cells [1]) of 26.5 µM, an IC50 (cells [2]) of 1.34 µM and an IC50 (cells [3]) of 15.8 µM. For the same compound, the IC50 [4] was 20.2 µM.
Compound `O=c1c(-c2ccccc2)cn(C2CC2)c2cc(N3CCNCC3)c(F)cc12` has a solubility [8] greater than 400 µM, an IC50 (cells [1]) of 8.65 µM and an IC50 (cells [2]) of 0.5 µM. The IC50 (cells [3]) was 9.99 µM, the inhibition [18] was “Active” and the IC50 [4] was 7.86 µM.
`CCn1cc(-c2cccc(OC)c2)c(=O)c2cc(F)c(N3CCNCC3)cc21` showed an IC50 (cells [1]) of 13 µM, an IC50 (cells [2]) of 0.8 µM and an IC50 (cells [3]) of 12.2 µM. It also gave an IC50 [4] of 14.7 µM.
For `O=c1c(-c2ccc(Cl)cc2)cn(C2CC2)c2cc(N3CCNCC3)c(F)cc12`, the solubility [8] was greater than 400 µM, the IC50 (cells [1]) was 8.02 µM and the IC50 (cells [2]) was 0.65 µM. The IC50 (cells [3]) was 9.3 µM, the inhibition [18] was “Active” and the IC50 [4] was 12.9 µM.
